This note sets out measurements from patent US11564920B2, “5-heteroaryl-1H-pyrazol-3-amine derivative” (Sumitomo Pharma Co., Ltd., priority 2020, dated 2023).

Entries after “also recorded” stand apart in the source; their conditions may differ. Some results are limits rather than exact numbers.

The IC50 is the concentration needed to halve the response being measured. A word on the inhibition: it is the share of the control response that was lost under treatment. Broadly, the microsomal CLint is the capacity of the preparation to metabolise the compound, expressed as a volume cleared per time. A lower microsomal CLint goes with greater metabolic stability.

Data set [1] deals with neutrophil count. The data set is described as follows: Measurement of neutrophil count using tumor-bearing mice transplanted with ES-2 cells (Test Example 17). Conditions: 30 mg/kg, 14 days, 2 times/week; 96 hours after final administration. In kind it is in vivo. How it is done: Blood was collected 96 hours after the final administration to measure the neutrophil count.
Ratio of residual neutrophils (%)=(neutrophil count of administration group 96 hours after administration)/(neutrophil count of control administration group 96 hours after administration)×100

The target of data set [2] is CHK1 (Homo sapiens (Human), UniProt O14757). The data set is described as follows: CHK1 inhibitory activity test (IMAP TR-FRET). The data set is classed as biochemical. To be noted: for effect of suppressing CHK1 activity (in words): compared with prexasertib; for inhibition at 0.0001 µM: read-out: CHK1 inhibition % at 0.1 nM. The protocol:
IMAP TR-FRET Screening Express Kit (R8160) was obtained from Molecular Devices. […] FAM-PKAtide (R7255, Molecular Devices) and FAM-Phospho-PKAtide (R7304, Molecular Devices) were admixed after dilution, and calibration standard systems for phosphorylation levels from 0 to 100% were created. 5 μL of a compound dissolved in a 0.4% DMSO solution was added to a 384 well plate. A compound study group to which 5 μL of each of CHK1, CHK1tide, and ATP was added, and a standard group to which 20 μL of standard was added were created, and subjected to a kinase reaction for 3 hours at 30° C. Subsequently, 60 μL of Binding Reagent (80% Buffer A, 20% Buffer B, 1:600 Binding Reagent, 1:400 Tb-Donor) was added for a binding reaction for 2 hours at room temperature.
(In general: Time-resolved FRET reads energy transfer from a long-lived donor to a nearby acceptor.)

Data set [3] deals with ES-2 cells. The data set is described as follows: Cell growth suppression experiment. To be noted: for IC50: Homo sapiens, 48 h, cultured for 2 days, read-out: IC50 (cell growth suppression, ranking). The data set is classed as cell-based. How it is done: ES-2 cells were obtained from the American Type Culture Collection (ATCC). These cells were cultured at 37° C. in the presence of 5% CO2 in a 10% fetal bovine serum, […] penicillin/streptomycin containing McCoy's 5a medium.
500 cells were seeded for each well in a 384-well plate, and the evaluated compound was added so that the final concentration of DMSO would be 0.1% to culture the cells for 2 days. After completion of the culture, the cell viability rate was calculated using CellTiter-Glo® 3D Reagent (Promega, G968B).

Data set [4] deals with CYP3A4 (Homo sapiens (Human), UniProt P08684). The data set is described as follows: CYP3A4 MBI and enzyme inactivation clearance evaluation. To be noted: human liver microsome. In kind it is in vitro ADME. How it is done: The effect and mode of inhibition of the test compound on CYP3A4 were evaluated using a human liver microsome as an enzyme source and midazolam or testosterone as a substrate. […] The IC50 value was calculated from a concentration plot.
(In general: Liver microsomes are a subcellular fraction often used to study metabolism.)

Data set [5] concerns the target hERG (Homo sapiens (Human), UniProt Q12809). The data set is described as follows: in vitro. Conditions: CHO cells stably expressing hERG. On the technique in general: Block of hERG is tested as a sign of cardiac risk.
Method: (§1) The test compounds were added to cultured hERG (human Ether-a-go-go Related Gene) gene stably expressing CHO cell line cells to achieve 0.27 to 100 μM.
Data set [6] deals with hERG current (Homo sapiens (Human), UniProt Q12809). The data set is described as follows: hERG current blocking test. Conditions: for hERG/CHK1: IC50 of hERG divided by IC50 of CHK1 inhibition of Test Example 1.
Chain of hERG current (Q12809 whole entry): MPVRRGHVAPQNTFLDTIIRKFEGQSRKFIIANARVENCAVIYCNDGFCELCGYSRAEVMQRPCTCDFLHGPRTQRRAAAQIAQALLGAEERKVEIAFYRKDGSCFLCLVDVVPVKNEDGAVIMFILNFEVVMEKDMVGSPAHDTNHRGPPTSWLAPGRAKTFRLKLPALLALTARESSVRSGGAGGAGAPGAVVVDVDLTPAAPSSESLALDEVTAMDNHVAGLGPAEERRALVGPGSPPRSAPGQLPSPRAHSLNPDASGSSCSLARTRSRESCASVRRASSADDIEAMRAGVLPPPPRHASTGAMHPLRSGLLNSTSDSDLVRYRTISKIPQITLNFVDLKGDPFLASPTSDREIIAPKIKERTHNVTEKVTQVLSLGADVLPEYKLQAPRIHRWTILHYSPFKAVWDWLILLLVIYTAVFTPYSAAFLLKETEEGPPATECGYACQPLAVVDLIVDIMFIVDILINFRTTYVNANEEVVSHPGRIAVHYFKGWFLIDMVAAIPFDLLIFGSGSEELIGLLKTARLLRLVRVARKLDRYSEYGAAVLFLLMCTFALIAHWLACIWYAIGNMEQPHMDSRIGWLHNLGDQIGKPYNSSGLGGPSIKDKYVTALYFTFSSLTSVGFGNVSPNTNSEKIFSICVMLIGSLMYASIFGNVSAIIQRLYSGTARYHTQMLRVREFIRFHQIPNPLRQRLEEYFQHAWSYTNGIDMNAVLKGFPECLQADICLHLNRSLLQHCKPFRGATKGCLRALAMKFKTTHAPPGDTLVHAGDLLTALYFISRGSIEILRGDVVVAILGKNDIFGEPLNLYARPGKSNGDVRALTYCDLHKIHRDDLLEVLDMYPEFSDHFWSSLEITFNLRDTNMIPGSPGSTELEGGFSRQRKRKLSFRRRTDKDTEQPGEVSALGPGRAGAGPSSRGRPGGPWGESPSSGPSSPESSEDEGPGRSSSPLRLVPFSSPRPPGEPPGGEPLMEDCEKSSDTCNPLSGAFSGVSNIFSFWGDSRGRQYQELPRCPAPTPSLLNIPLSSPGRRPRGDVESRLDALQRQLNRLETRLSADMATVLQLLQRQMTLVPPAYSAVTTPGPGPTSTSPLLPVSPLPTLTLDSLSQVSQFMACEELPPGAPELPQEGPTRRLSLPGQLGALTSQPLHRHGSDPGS
Method: as §1

Chain of CHK1 (O14757 whole entry): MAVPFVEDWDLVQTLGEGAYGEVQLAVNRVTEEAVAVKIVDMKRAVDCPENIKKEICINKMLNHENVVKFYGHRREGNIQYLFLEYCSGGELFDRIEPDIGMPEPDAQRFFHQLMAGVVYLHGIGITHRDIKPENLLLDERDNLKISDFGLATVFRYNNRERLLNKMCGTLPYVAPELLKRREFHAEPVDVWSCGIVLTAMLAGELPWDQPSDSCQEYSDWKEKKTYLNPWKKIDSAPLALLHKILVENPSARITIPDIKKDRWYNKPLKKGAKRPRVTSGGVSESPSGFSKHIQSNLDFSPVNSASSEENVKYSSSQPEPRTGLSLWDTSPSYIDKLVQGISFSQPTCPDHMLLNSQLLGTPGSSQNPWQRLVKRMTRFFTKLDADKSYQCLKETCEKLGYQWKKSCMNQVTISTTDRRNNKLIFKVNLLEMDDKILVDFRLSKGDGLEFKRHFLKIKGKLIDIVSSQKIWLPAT
Chain of CYP3A4 (P08684 whole entry): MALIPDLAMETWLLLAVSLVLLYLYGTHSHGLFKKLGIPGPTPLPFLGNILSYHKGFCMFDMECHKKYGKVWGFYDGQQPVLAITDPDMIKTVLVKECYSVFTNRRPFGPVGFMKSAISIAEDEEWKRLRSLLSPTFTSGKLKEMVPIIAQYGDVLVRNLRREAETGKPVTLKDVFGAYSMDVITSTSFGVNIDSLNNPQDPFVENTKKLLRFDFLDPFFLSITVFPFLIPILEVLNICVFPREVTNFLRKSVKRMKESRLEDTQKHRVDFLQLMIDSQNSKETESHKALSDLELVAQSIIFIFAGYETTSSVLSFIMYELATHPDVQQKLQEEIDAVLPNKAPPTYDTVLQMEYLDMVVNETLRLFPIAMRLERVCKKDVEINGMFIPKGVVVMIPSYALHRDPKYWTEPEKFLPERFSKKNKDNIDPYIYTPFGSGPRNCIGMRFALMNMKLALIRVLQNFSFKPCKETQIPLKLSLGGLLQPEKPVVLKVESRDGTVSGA
Chain of hERG (Q12809 whole entry): as the sequence (Q12809 whole entry) above

For the compound `Nc1ccn([C@@H]2O[C@H](CO)[C@@H](O)C2(F)F)c(=O)n1` [Gemcitabine], in data set [1], the “Ratio of residual neutrophils” value stood at 39%.
On to `COc1nccc(OCC2(CO)CNC2)c1-c1cc(Nc2cnc(C#N)cn2)n[nH]1` [Example 8, 5-{[5-(4-{[3-(hydroxymethyl)azetidin-3-yl]methoxy}-2-methoxypyridin-3-yl)-1H-pyrazol-3-yl]amino}pyrazine-2-carbonitrile], for which, in data set [2], the IC50 is below 0.0001 µM, the “effect of suppressing CHK1 activity (in words)” value is reported as “more potent effect of suppressing CHK1 activity than prexasertib; also recorded: especially potently suppressing CHK1 activity” and the inhibition at 0.0001 µM is 51%. Further, in data set [3], the IC50 fell in the range of 0.03 to 0.1 µM. In addition, the “Factor of change in IC50 value” in data set [4] (by pre-incubation with NADPH, MBI action when 2-fold or greater) is recorded as “Not Detected”. For the same compound, the selectivity ratio in data set [5] was at least 100000. The hERG/CHK1 in data set [6] was above 1000000. Moreover, the IC50 in data set [6] (read-out: hERG inhibition IC50, hERG stably expressing CHO cells, Qube384) was above 100 µM.
For the compound `COc1cncc(OC[C@]2(F)CCNC2)c1-c1cc(Nc2cnc(C#N)cn2)n[nH]1` [Example 20, (S)-5-[(5-{3-[(3-fluoropyrrolidin-3-yl)methoxy]-5-methoxypyridin-4-yl}-1H-pyrazol-3-yl)amino]pyrazine-2-carbonitrile], in data set [2], the “effect of suppressing CHK1 activity (in words)” value is reported as “more potent effect of suppressing CHK1 activity than prexasertib” and the inhibition at 0.0001 µM was found to be 6%. Further, the IC50 in data set [3] is below 0.03 µM. For the same compound, in data set [3] (compared with prexasertib), the “cell growth suppression effect (in words)” value is on record as “excellent cell growth suppression effect that is equivalent to that of prexasertib”. The microsomal CLint in data set [4] (liver microsomes, probe midazolam or testosterone) was determined as 1.11 µL/min/mg. The compound also came in with a hERG/CHK1 in data set [6] of 11176.
